The source of these data is patent US20100190856A1, “Novel Polyhydroxylated Compounds as Fatty Acid Synthase (FASN) Inhibitors” (UNIVERSIDAD COMPLUTENSE DE MADRID, priority 2007, published 2010).

Series [1] deals with MDA-MB-231 breast cancer cells. Description: MTT cytotoxicity assay, MDA-MB-231 breast cancer cells. Type of series: cell-based, human. The conditions noted are these: Homo sapiens, MDA-MB-231 cells, 48 h, read-out: IC50, growth inhibition, MDA-MB-231. The protocol:
(§1) MCF-7 and MDA-MB-231 breast cancer cells were obtained from the American Type Culture Collection (ATCC) and were routinely grown in Dulbecco's modified Eagle's medium (DMEM, Gibco) containing 10% fetal bovine serum (FBS, Bio-Whittaker), 1% L-glutamine, 1% sodium pyruvate, 50 U/mL penicillin and 50 μg/mL streptomycin. SK-Br3 breast cancer cells were obtained from Eucellbank (Universidad de Barcelona, Spain) and were passaged in McCoy's 5 A medium containing 10% FBS, 1% L-glutamine, 1% sodium pyruvate, 50 U/mL penicillin and 50 μg/mL streptomycin. Non-malignant fibroblasts N-1 were obtained from Eucellbank (Universidad de Barcelona, Spain) and were passaged in DMEM medium containing 10% FBS, 1% L-glutamine, 1% sodium pyruvate, 50 U/mL penicillin and 50 μg/mL streptomycin. The cells remained free of Mycoplasma and were propagated in adherent culture according to established protocols. Cells were maintained at 37° C. in a humidified atmosphere of 95% air and 5% CO2.
(§2) Drug sensitivity was determined using a standard colorimetric MTT (3-4,5-dimethylthiazol-2-yl-2,5-diphenyltetrazolium bromide) assay. Briefly, cells were plated out at a density of 7×10^3 cells/100 μL/well in 96-well microtitre plates and allowed an overnight period for attachment. Then the medium was removed and fresh medium along with various concentrations of the tested compound were added to the cultures for a period of 48 h. Following the treatment, the cells were fed with drug-free medium (100 μL/well) and 10 μL of MTT solution (5 mg/mL; Sigma, St. Louis, Mo.), and the incubation was prolonged for 3 h at 37° C. After carefully removing the supernatants, the MTT-formazan crystals formed by metabolically viable cells were dissolved in dimethyl sulphoxide (100 μL/well) and the absorbance was measured at 570 nm in a multi-well plate reader (Model Anthos Labtec 2010 1.7 reader).
In general terms: Formazan colour is commonly taken as a measure of viable cells.

Series [2] has as its system MCF-7 breast cancer cells. Description: MTT cytotoxicity assay, MCF-7 breast cancer cells. The format is cell-based, human. The settings on record: Homo sapiens, MCF7, MCF-7 cells, 48 h, read-out: IC50, growth inhibition, MCF-7. Here is the method:
as §1, §2

Series [3] deals with SK-Br3 breast cancer cells. Description: MTT cytotoxicity assay, SK-Br3 breast cancer cells. Type of series: cell-based, human. The settings on record: Homo sapiens, SK-BR-3, 48 h, MTT, 48 h, read-out: IC50, growth inhibition, SK-Br3. The protocol: as §1, §2
Series [4] deals with Non-malignant fibroblasts N-1. Description: MTT cytotoxicity assay, non-malignant fibroblasts N-1. The format is cell-based. The conditions noted are these: for IC50: Fibroblast, non-malignant fibroblasts, MTT, 48 h, read-out: IC50, growth inhibition, Fibroblasts; for effects in cell death / morphology changes in non-malignant cells: up to doses three-fold their cytotoxic IC50 value in tumoral cells. Here is the method: as §1, §2

The target in the next series is T1, FASN (Homo sapiens, UniProt P49327).
T1 construct: endogenous in cells; host or cells: SK-Br3 breast cancer cells
Description: Fatty acid synthase activity assay in SK-Br3 cells (NADPH oxidation, particle-free supernatants). Type of series: cell-based. Details: FASN activity, % of control cells / FASN activity reduced to / reduction of FASN activity: concentration or dose not given beside the values. Here is the method:
FASN activity of compounds a, b, e, f, h, i, k, m and q was assayed in particle-free supernatants by recording spectrophotometrically at 37° C. (Lambda Bio 20, Perkin Elmer, EUA; using UV Kinlab 2.80.02 software) the decrease of A340nm due to the oxidation of NADPH, as we previously described. After 6, 12, 24 h of exposure to the tested compound, the cells were harvested by treatment with trypsin-EDTA solution, pelleted by centrifugation, washed twice and resuspended in cold PBS. The cells were sonicated during 30 min at 4° C. (PSelecta ultrasons) and centrifuged for 15 min at 4° C. to keep supernatants particle-free. A sample was taken to measure the protein content by a BioRad assay (Bio-Rad Laboratories). One-hundred and twenty micrograms of protein were pre-incubated during 15 min at 37° C. in 0.2 M of potassium phosphate buffer, pH 7.0, for temperature equilibration. The sample was then added to the reaction mixture: 200 mM potassium phosphate buffer, pH 7.0, 1 mM EDTA (Sigma), 1 mM dithiothreitol (Sigma), 30 μM acetyl-CoA (Sigma), 0.24 mM NADPH (Sigma), in 0.3 mL reaction volume were monitored at 340 nm for 3 min to measure the background NADPH oxidation. After the addition of 50 μM of malonyl-CoA (Sigma), the reaction was assayed for additional 10 min to determine FASN-dependent oxidation of NADPH. Rates were corrected for the background rate of NADPH oxidation in the presence of acetyl-CoA. FASN activity was expressed in nmol NADPH oxidized min^−1 mg protein^−1.

T1 sequence (P49327 whole entry): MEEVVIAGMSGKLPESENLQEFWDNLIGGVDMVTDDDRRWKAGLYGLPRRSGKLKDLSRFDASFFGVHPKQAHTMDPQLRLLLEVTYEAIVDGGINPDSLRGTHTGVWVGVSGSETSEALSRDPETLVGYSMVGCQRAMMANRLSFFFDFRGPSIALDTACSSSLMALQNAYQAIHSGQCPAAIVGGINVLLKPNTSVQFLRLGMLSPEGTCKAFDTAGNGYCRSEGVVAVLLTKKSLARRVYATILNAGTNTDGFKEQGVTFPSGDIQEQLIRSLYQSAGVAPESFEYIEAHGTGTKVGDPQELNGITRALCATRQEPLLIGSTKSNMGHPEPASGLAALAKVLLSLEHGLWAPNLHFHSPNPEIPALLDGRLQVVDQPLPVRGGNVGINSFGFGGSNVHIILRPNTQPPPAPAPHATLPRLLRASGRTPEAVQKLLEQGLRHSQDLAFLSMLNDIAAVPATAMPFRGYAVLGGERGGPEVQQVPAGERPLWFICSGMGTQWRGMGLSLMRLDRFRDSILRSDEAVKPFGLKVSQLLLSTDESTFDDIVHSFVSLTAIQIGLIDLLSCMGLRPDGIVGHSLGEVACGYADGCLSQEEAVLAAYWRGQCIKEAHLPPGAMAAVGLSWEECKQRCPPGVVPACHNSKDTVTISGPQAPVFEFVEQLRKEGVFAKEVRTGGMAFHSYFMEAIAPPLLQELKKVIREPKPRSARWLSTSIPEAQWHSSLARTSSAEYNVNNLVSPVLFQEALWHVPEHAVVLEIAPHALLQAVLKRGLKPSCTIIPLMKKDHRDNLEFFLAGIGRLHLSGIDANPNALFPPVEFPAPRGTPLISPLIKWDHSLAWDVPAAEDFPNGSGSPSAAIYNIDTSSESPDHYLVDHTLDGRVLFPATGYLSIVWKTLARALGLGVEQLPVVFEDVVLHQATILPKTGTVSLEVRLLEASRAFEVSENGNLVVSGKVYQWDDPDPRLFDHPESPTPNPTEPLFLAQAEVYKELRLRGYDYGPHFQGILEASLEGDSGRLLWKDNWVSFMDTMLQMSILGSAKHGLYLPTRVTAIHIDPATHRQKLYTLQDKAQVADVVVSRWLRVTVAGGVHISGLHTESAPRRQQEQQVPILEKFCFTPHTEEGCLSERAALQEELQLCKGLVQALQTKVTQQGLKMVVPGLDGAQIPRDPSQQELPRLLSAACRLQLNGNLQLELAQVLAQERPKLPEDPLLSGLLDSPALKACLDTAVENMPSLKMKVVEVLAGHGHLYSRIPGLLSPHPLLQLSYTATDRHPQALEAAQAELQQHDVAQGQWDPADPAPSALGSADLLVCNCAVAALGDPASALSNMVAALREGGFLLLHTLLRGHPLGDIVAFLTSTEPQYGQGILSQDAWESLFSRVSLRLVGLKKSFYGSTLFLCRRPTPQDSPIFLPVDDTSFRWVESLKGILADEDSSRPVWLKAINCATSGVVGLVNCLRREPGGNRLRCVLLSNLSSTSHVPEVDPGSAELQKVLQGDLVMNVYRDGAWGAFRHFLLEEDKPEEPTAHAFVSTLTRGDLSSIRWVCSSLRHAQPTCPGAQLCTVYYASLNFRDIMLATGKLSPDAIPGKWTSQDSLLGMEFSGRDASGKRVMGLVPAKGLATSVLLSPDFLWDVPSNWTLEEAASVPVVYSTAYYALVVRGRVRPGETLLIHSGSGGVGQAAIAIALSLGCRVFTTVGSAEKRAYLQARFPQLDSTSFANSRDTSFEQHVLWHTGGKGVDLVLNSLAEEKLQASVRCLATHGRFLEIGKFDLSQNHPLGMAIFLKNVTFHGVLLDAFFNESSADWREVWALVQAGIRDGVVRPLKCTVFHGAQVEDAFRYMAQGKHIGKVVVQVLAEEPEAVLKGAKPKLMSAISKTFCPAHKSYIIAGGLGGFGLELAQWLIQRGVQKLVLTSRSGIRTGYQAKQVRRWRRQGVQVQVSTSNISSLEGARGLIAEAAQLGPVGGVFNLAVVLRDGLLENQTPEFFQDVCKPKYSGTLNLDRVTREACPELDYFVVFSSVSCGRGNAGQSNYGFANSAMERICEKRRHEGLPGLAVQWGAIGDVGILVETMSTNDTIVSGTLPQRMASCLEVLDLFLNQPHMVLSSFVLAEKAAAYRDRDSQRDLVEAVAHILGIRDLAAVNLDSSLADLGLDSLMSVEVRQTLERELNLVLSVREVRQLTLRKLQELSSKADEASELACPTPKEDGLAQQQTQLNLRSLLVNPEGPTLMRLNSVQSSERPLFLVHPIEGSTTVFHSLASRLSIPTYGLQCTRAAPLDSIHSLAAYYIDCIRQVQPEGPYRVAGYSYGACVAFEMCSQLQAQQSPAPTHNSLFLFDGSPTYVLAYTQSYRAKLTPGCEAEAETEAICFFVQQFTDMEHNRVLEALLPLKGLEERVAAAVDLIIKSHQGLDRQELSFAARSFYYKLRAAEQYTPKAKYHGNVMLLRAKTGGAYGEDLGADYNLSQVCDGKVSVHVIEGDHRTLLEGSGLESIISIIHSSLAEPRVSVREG

Take `Cc1cc(OC(=O)c2cc(O)c(O)c(O)c2)ccc1OC(=O)c1cc(O)c(O)c(O)c1` [c, 2-methyl-1,4-bis[(3,4,5-trihydroxybenzoyl)oxy]benzene]: the IC50 in series [1] was 54.7 ± 7.6 µM; in series [2], 4.5 µM; in series [3] it was 23.3 ± 2.1 µM; in series [4], above 100 µM. The “effects in cell death / morphology changes in non-malignant cells” value in series [4] was “No significant effects”.

For the molecule `O=C(Oc1ccc(OC(=O)c2cc(O)c(O)c(O)c2)c2c1CCCC2)c1cc(O)c(O)c(O)c1` [z, 1,4-bis[(3,4,5-trihydroxybenzoyl)oxy]-5,6,7,8-tetrahydronaphthalene], the concentration for half-maximal inhibition (IC50) in series [1] worked out at 104 ± 10 µM; in series [2], 43 ± 10 µM; in series [3], 41 ± 3 µM; in series [4], 128 ± 32 µM. Moreover, in series [4], the “effects in cell death / morphology changes in non-malignant cells” value is “No significant effects”.

Take `O=C(Oc1cc(OC(=O)c2ccc(O)c(O)c2)c2ccccc2c1)c1ccc(O)c(O)c1` [h, 1,3-bis[(3,4-dihydroxybenzoyl)oxy]naphthalene]: the “inhibition of FASN activity (in words)” value on FASN (SK-Br3 cells treated 6, 12 and 24 hours) is recorded as “inhibit FASN activity”. Further, the “FASN activity reduced to” value at FASN (SK-Br3 cells, 12 h exposure) is 77%. In addition, the IC50 in series [1] came out at 19 ± 1.1 µM; in series [3] it was 20.7 ± 11.5 µM; in series [4] it was 105 µM. The “effects in cell death / morphology changes in non-malignant cells” value in series [4] is on record as “No significant effects”.

As for `O=C(Oc1cc(OC(=O)c2cc(O)c(Br)c(O)c2)c2ccccc2c1)c1cc(O)c(Br)c(O)c1` [w, 1,3-bis[(4-bromo-3,5-dihydroxybenzoyl)oxy]naphthalene], in series [3], the IC50 is 46.7 ± 11.7 µM. In addition, in series [4], the IC50 stood at 79.5 ± 14.8 µM and the “effects in cell death / morphology changes in non-malignant cells” value is on record as “No significant effects”.

Take `COc1cc(OC(=O)c2cc(O)c(O)c(O)c2)ccc1OC(=O)c1cc(O)c(O)c(O)c1` [d, 2-methoxy-1,4-bis[(3,4,5-trihydroxybenzoyl)oxy]benzene]: the IC50 in series [1] is 28 ± 1 µM; in series [2] it was 30 ± 0.1 µM; in series [3], 8.3 ± 1.1 µM; in series [4], above 50 µM. Also, the “effects in cell death / morphology changes in non-malignant cells” value in series [4] is “No significant effects”.

Turning to `COC(=O)c1cc(OC(=O)c2cc(O)c(O)c(O)c2)c2ccccc2c1OC(=O)c1ccc(O)cc1` [ee, methyl 1-[(4-hydroxybenzoyl)oxy]-4-[(3,4,5-trihydroxybenzoyl)oxy]-2-naphthoate], the IC50 in series [3] amounted to 33 ± 1.4 µM; in series [4], 67.5 ± 4.9 µM. Moreover, the “effects in cell death / morphology changes in non-malignant cells” value in series [4] was “No significant effects”.

Take `O=C(Oc1ccc2cc(OC(=O)c3cc(O)c(O)c(O)c3)ccc2c1)c1cc(O)c(O)c(O)c1` [l, 2,6-bis[(3,4,5-trihydroxybenzoyl)oxy]naphthalene]: the IC50 was 15.3 ± 1 µM in series [1], 13 ± 1.8 µM in series [2], 5.5 ± 1 µM in series [3] and above 200 µM in series [4]. Moreover, in series [4], the “effects in cell death / morphology changes in non-malignant cells” value was “No significant effects”.

Take `COC(=O)c1cc(OC(=O)c2cc(O)c(O)c(O)c2)c2ccccc2c1OC(=O)c1cc(O)c(Br)c(O)c1` [cc, methyl 1-[(4-bromo-3,5-dihydroxybenzoyl)oxy]-4-[(3,4,5-trihydroxybenzoyl)oxy]-2-naphthoate]: the IC50 in series [3] was determined as 16.5 ± 4.9 µM. Besides, in series [4], the IC50 came out at 91.5 ± 2.1 µM and the “effects in cell death / morphology changes in non-malignant cells” value was “No significant effects”.

On to `COC(=O)c1cc(OC(=O)c2cc(O)c(O)c(O)c2)c2ccccc2c1OC(=O)c1cccc(O)c1` [dd, methyl 1-[(3-hydroxybenzoyl)oxy]-4-[(3,4,5-trihydroxybenzoyl)oxy]-2-naphthoate], for which the IC50 in series [3] stood at 15.5 ± 3.5 µM; in series [4], 39.5 ± 6.4 µM. In addition, in series [4], the “effects in cell death / morphology changes in non-malignant cells” value is recorded as “No significant effects”.

For the molecule `O=C(Oc1ccc(-c2ccc(OC(=O)c3cc(O)cc(O)c3)cc2)cc1)c1cc(O)cc(O)c1` [s, 4,4′-bis[(3,5-dihydroxybenzoyl)oxy]-1,1′-biphenyl], the IC50 in series [1] was 5.75 ± 2 µM; in series [3] it was 7.3 ± 2 µM; in series [4] it was 33 ± 3 µM. Further, the “effects in cell death / morphology changes in non-malignant cells” value in series [4] is reported as “No significant effects”.

For orientation: IC50 means the midpoint of a concentration-inhibition curve.
